In US8809315B2, “Combination medicaments for treating bacterial infections” (Basilea Pharmaceutica AG, priority 2007, dated 2014):

How the values were obtained:
Assay in all cases: MIC, broth microdilution (NCCLS M7-A6)
Type in all cases: cell-based
[1] = tested on: Pseudomonas aeruginosa 6067 [DSM 18987]; settings: P. aeruginosa 6067; combinations of equal weights; IsoSensiTest Broth + 16 μg/mL 2,2'-bipyridyl
Protocol: (§1) Antimicrobial activity of the compounds and of their combinations is determined against a selection of organisms according to standard procedures described by the National Committee for Clinical Laboratory Standards (NCCLS document M7-A6). […] In all cases the final concentration of DMSO incubated with the bacteria is less than or equal to 1%. […] Plates are incubated overnight at an appropriate temperature (30° C. or 37° C.) and optical densities assessed by eye. The MIC value is defined as the lowest compound concentration completely inhibiting visible growth of the test organism. Synergism tests are performed under the same conditions as described above but with two antimicrobial agents dispensed in checkerboard format [Isenberg H D (1992) Synergism testing: Broth microdilution checkerboard and broth macrodilution methods. In: Clinical Microbiology Procedures Manual vol. 1. Washington, D.C.: American Society for Microbiology. […] The strains used are: Pseudomonas aeruginosa 6067 (Accession number at the DSMZDeutsche Sammlung von Mikroorganismen and Zellkulturen GmbH, Inhoffenstr. 7 B, D-38124 Braunschweig: […] (DSM 18988), Achromobacter (formerly Alcaligenes) xylosoxidans QK3/96 (DSM 18991), Enterobacter aerogenes Zayakosky 5 (DSM 18992).

[2] = tested on: Pseudomonas aeruginosa (67/2B)2R.A. [DSM 18988]; settings: P. aeruginosa (67/2B)2R.A.; combinations of equal weights; IsoSensiTest Broth + 16 μg/mL 2,2'-bipyridyl
Protocol: as §1

[3] = tested on: Enterobacter aerogenes Zayakosky 5 [DSM 18992]; settings: E. aerogenes Zayakosky 5; combinations of equal weights; IsoSensiTest Broth + 16 μg/mL 2,2'-bipyridyl
Protocol: as §1

[4] = tested on: Achromobacter (formerly Alcaligenes) xylosoxidans QK3/96 [DSM 18991]; settings: A. xylosoxidans QK3/96; combinations of equal weights; IsoSensiTest Broth + 16 μg/mL 2,2'-bipyridyl
Protocol: as §1

SMILES | Minimum Inhibitory Concentration [1] [mg/L] | Minimum Inhibitory Concentration [2] [mg/L] | Minimum Inhibitory Concentration [3] [mg/L] | Minimum Inhibitory Concentration [4] [mg/L]
C[C@H]1[C@H](NC(=O)/C(=N\OC(C)(C)C(=O)O)c2csc(N)n2)C(=O)N1S(=O)(=O)O [Aztreonam, (Z)-2-[[[(2-amino-4-thiazolyl)[[(2S,3S)-2-methyl-4-oxo-1-sulfo-3-azetidinyl]-carbamoyl]methylene]amino]oxy]-2-methylpropionic acid] | 16 | 4 | 64 | >64
C[C@H]1[C@H](NC(=O)/C(=N\OCc2cc(=O)c(O)cn2O)c2cccs2)C(=O)N1S(=O)(=O)O [Compound A, (3S)-trans-3-[(E)-2-(2-thienyl)-2-{(1,5-dihydroxy-4-pyridon-2-ylmethoxy)imino}-acetamido]-4-methyl-2-oxazetidine-1-sulfonic acid] | >64 | >64 | >64 | >64
C[C@H]1[C@H](NC(=O)/C(=N/OCc2cc(=O)c(O)cn2O)c2cccs2)C(=O)N1S(=O)(=O)O [Compound B] | >64 | >64 | >64 | >64
CC1(C)[C@H](NC(=O)/C(=N\OCc2cc(=O)c(O)cn2O)c2csc(N)n2)C(=O)N1OS(=O)(=O)O [Compound of formula I, (3S)-3-{(2Z)-2-(2-amino(1,3-thiazol-4-yl))-3-[(1,5-dihydroxy-4-oxo(2-hydropyridyl))methoxy]-3-azaprop-2-enoylamino}-4,4-dimethyl-2-oxoazetidinyl hydroxysulfonate] | 16 | 32 | 16 | 16
C[C@@H](O)[C@H]1C(=O)N2C(C(=O)O)=C(S[C@@H]3CN[C@H](CNS(N)(=O)=O)C3)[C@H](C)[C@H]12 [Doripenem] | 16 | 4 | 8 | 16
C[C@@H](O)[C@H]1C(=O)N2C(C(=O)O)=C(S[C@@H]3CN[C@H](C(=O)Nc4cccc(C(=O)O)c4)C3)[C@H](C)[C@H]12 [Ertapenem] | >32 | >32 | >32 | >32
C[C@@H](O)[C@H]1C(=O)N2C(C(=O)O)=C(SCCN=CN)C[C@H]12 [Imipenem] | 4 | 16 | 32 | 4
C[C@@H](O)[C@H]1C(=O)N2C(C(=O)O)=C(S[C@@H]3CN[C@H](C(=O)N(C)C)C3)[C@H](C)[C@H]12 [Meropenem] | 16 | 4 | 16 | 16
